Measured values published in PMC12811501, “A plant-derived antimicrobial peptide with multiple mechanisms of action exhibiting antibacterial and antibiofilm activities comparable to or superior to polymyxin B” (Current Research in Microbial Sciences, 2025).
Converted amounts (≈) assume the structure as drawn. Residues, ends and D or L forms follow the SMILES beside them.

Tests used:
E. coli = format: cell-based, Escherichia coli; conditions: 8 h
Protocol: (§1) For serum stability test human blood was purchased from the Regional Blood Centre in Szeged (the use of human blood has been authorized by the Regional Hungarian Ethics Committee and approved by the Ethics Review Sector of DG RTD (European Commission) in connection with EK’s ERC AdG SymBiotics). The cells from 10 ml of EDTA-blood were centrifuged at 1500 × g for 1 min and washed several times in TBS buffer (10 mM Tris, pH: 7.2, 150 mM NaCl) until the supernatant, representing the serum, became colorless. The NCR169C17–38 peptide was added to the serum at 1:1 ratio and incubated at room temperature for 8 h. Subsequently, serial 2-fold dilutions of the peptide were prepared in PPB, with concentrations ranging from 100 to 0.2 µM and antimicrobial assay was done to determine the MBC values. Experiments were done in three biological replicates.

[1] = tested on: circular plasmid DNA (pDEST-GBKT7); experiment: Gel retardation assay; format: binding; conditions: 250 ng circular plasmid DNA, peptide 50 µM to 0.8 µM
Protocol: (§2) The DNA- and RNA-binding abilities of NCR169C17–38, its parental peptide NCR169, and two shorter derivatives (NCR169_16–27 and NCR169_17–27) were initially evaluated using a gel retardation assay. In this setup, 100 ng of either E. coli genomic DNA or total RNA was incubated with 10 µM or 100 µM of each peptide for 30 min at 37 °C. Reaction mixtures, along with untreated controls, were then subjected to agarose gel electrophoresis, and the resulting nucleic acid migration patterns were examined for changes indicative of peptide binding. The interaction of NCR169C17–38 with circular plasmid DNA (pDEST-GBKT7) was also characterized using peptide concentrations ranging from 50 µM to 0.8 µM, prepared by 2-fold serial dilution. Experiments were done in three biological replicates.
(§3) To explore whether the NCR169C17–38 peptide has secondary intracellular targets of the bacterial cells beyond the primary membrane disruption, we tested its possible interaction with nucleic acids in gel retardation assays. A pilot experiment indicated strong DNA-binding capacity, prompting us to include the parental NCR169 peptide and the shorter derivatives NCR169_16–27 and NCR169_17–27 for comparison (Fig. 3.). […] Similar results were obtained with total E. coli RNA (Fig. 3.B). […]

[2] = tested on: human keratinocyte HaCaT cells; conditions: cited from earlier work
E. coli genomic DNA = experiment: Gel retardation assay; format: binding, Escherichia coli; conditions: 100 ng E. coli genomic DNA, 10 or 100 µM peptide, 30 min at 37 °C
Protocol: as §2, §3

E. coli total RNA = experiment: Gel retardation assay; format: binding, Escherichia coli; conditions: 100 ng E. coli total RNA, 10 or 100 µM peptide, 30 min at 37 °C
Protocol: as §2, §3

S. aureus = format: cell-based, Staphylococcus aureus; conditions: 8 h
Protocol: as §1

Acinetobacter baumannii = experiment: microbe, parasite or virus in culture; format: cell-based
Protocol: For the biofilm inhibition assay the antimicrobial activity test was done in 1/10 MHB using A. baumannii treated with the respective dilutions of NCR169C17–38, meropenem or polymixin B for 24 h. After taking the 5 μl samples at the end of the treatment and placed on LB agar to detect bacterial growth, the rest of the grown bacterial suspensions were discarded from the plate and the remaining biofilm on the walls of the plate was then washed three times with sterile water and stained using 1 % Crystal Violet (CV) for 15 min to visualize the produced biofilm. The non-adherent CV dye was then removed by washing with water three times. The plate was left for complete drying, then the biofilm-bound CV dye was dissolved in 200 µl of 30 % acetic-acid with shaking over 15 min. The absorbance was measured at OD550 using a HIDEX Plate Reader (Hidex Sense Microplate Reader with Plate Reader Software version 5064, Hidex, Finland). All measurements were repeated three times.
We examined the capacity of NCR169C17–38 to inhibit biofilm formation by Acinetobacter baumannii, a pathogen well known for its robust biofilm production and high level of antibiotic resistance. […] Additionally, at the end of the experiment we determined the quantity of the biofilm and thereby evaluated their ability to inhibit biofilm formation during culturing the bacteria in the presence of different concentrations of the agents (Fig. 1.A). We tested concentrations of NCR169C17–38 ranging from 25 μM to 0.4 μM, meropenem from 100 μM to 1.6 μM and polymyxin B from 3.1 μM to 0.05 μM.

[3] = Liposome sedimentation assay; format: binding; conditions: 20 μM peptide, 30 min room temperature, 200,000 × g, SDS-PAGE
Protocol: To prepare the liposomes, phospholipids DMPC and Cardiolipin purchased from Avanti Polar Lipids (Alabaster, AL, USA) were dissolved in Chloroform:Methanol:Water in the ratio of (65:25:4) and (73:23:3) respectively, and dried under vacuum for 1 h. The lipid film was suspended in the assay buffer (20 mM HEPES, 150 mM NaCl, pH 7.0), vortexed, and sonicated for 15 min to form the liposomes. The assay was carried out by incubating 2 mM of the liposomes with 20 μM of NCR169C17–38 peptide and incubated for 30 min at room temperature, followed by ultracentrifugation at 200,000 × g for 15 min at 20 °C. After centrifugation, the supernatant (sn) and pellet (p) fractions were collected separately and were subjected to glycine-SDS-PAGE. The peptides were detected by Coomassie Brilliant Blue staining.
Prepared liposomes were incubated with NCR169C17–38, then separated by ultracentrifugation. Peptide remaining in the supernatant (sn) fraction indicated no binding, whereas peptide detected in the pellet (p) fraction indicated liposome association.

SMILES: CC[C@H](C)[C@H](NC(=O)[C@H](CCCCN)NC(=O)[C@H](Cc1ccccc1)NC(=O)[C@H](CC(C)C)NC(=O)[C@@H]1CCCN1C(=O)[C@H](CCCCN)NC(=O)[C@H](CCCCN)NC(=O)[C@H](CO)NC(=O)[C@@H](N)CCCCN)C(=O)N[C@@H](Cc1c[nH]c2ccccc12)C(=O)N[C@@H](CCCCN)C(=O)N[C@@H](CS)C(=O)N[C@H](C(=O)N[C@@H](CCC(=O)O)C(=O)N[C@@H](CC(N)=O)C(=O)N[C@H](C(=O)N[C@@H](CS)C(=O)N[C@H](C(=O)N[C@@H](CC(C)C)C(=O)N[C@@H](Cc1c[nH]c2ccccc12)C(=O)N[C@@H](Cc1ccc(O)cc1)C(=O)N[C@@H](CCCCN)C(N)=O)C(C)C)C(C)C)C(C)C [NCR169C17–38] (H-KSKKPLFKIWKCVENVCVLWYK-NH2; N-terminus assumed)
- MBC after pre-incubation in human serum (E. coli): 3.1 µM (≈ 8.49 µg/mL)
- plasmid DNA binding, gel retardation [1]: complete retention of DNA in the well at higher concentrations
- cytotoxicity [2]: non-cytotoxic
- DNA binding, gel retardation (E. coli genomic DNA): completely preventing DNA migration from the well at the lower concentration
- RNA binding, gel retardation (E. coli total RNA): completely blocked RNA migration at high concentrations
- MBC after pre-incubation in human serum (S. aureus): 3.1 µM (≈ 8.49 µg/mL)
- MBC (Acinetobacter baumannii; 24 h, read-out: MBC, Inhibition test after 24 h): 6.3 µM (≈ 17.3 µg/mL)
- inhibition of biofilm formation (Crystal Violet, OD550) (Acinetobacter baumannii; A. baumannii, 24 h treatment, NCR169C17–38 25-0.4 μM, meropenem 100-1.6 μM, polymyxin B 3.1-0.05 μM): remaining effective even at lower doses
- liposome binding ([3]; 2 mM Cardiolipin liposomes): bound strongly
- liposome binding ([3]; 2 mM DMPC liposomes): no binding
